From article PMC10166890, “Screening for DAX1/EWS‐FLI1 functional inhibitors identified dihydroorotate dehydrogenase as a therapeutic target for Ewing's sarcoma” (Cancer Medicine, 2023)

Key:
[1] = test system: TC‐71‐derived tumors; experiment: TC‐71 xenograft in SCID mice; format: in vivo, mouse; conditions: 10, 30, or 100 mg/kg orally once daily; less sensitive than others
Method: (§1) All animal studies were performed in accordance with Standards for Proper Conduct sof Animal Experiments at Kyowa Kirin Co., Ltd., under the approval of the company's Institutional Animal Care and Use Committee. Male C.B17/Icr‐scid/scidJcl (SCID) mice (5 weeks old) were purchased from CREA Japan (Tokyo, Japan). K‐733 was suspended in 0.5% (w/v) methylcellulose 400 (MC400; FUJIFILM Wako Pure Chemical) and orally administered to mice once daily. Ewing's cells were suspended in Dulbecco's phosphate‐buffered saline (DPBS; Thermo Fisher Scientific, Waltham, MA, USA) and injected subcutaneously into the ventral side of mice at 5 × 10^6 cells/0.1 mL/mouse for A‐673 and TC‐71 and 1 × 10^7 cells/0.1 mL/mouse for CADO‐ES1 and SK‐ES‐1. In experiments using TC‐71 cells, 0.3 mg of anti‐asialo GM1 antibody (FUJIFILM Wako Pure Chemical) was injected intraperitoneally 1 day before TC‐71 injection. The tumor size and body weight were measured every 3 or 4 days. The tumor volume was calculated using the following equation: Tumor volumemm^3=DL×DS×DS×1/2, where DL and DS represent the long diameter and short diameter, respectively. The pharmacokinetic analysis of K‐733 is described in Materials and Methods S2.

[2] = test system: CADO‐ES1; experiment: CADO‐ES1 xenograft in SCID mice; format: in vivo, mouse; conditions: 10, 30, or 100 mg/kg orally once daily
Method: as §1

[3] = biological target: T1, DHODH (Homo sapiens, UniProt Q02127); experiment: DHODH inhibition assay, A‐673 mitochondria fraction (orotic acid production, LCMSMS); format: biochemical; conditions: read-out: IC50 for orotic acid production through DHODH
T1 construct: The mitochondria fraction was isolated from A‐673 cells using Q proteome Mitochondria Isolation kit; endogenous in cells; host or cells: A-673 cells, mitochondria fraction
Method: The mitochondria fraction was isolated from A‐673 cells using Q proteome Mitochondria Isolation kit (QIAGEN, Hilden, Germany). The protein concentration of the fraction was determined using the DC‐protein assay kit (Bio‐Rad Laboratories, Hercules, CA, USA) with bovine serum albumin (Sigma‐Aldrich) as the standard. […] The reaction was quenched by adding 120 μL of 3 μM 5‐fluoroorotic acid acetonitrile solution. These samples were then centrifuged at 5000 g for 5 min to precipitate proteins, and the supernatant was collected. The samples were diluted 10‐fold with 70% acetonitrile‐water and subjected to liquid chromatography with tandem mass spectrometry (LCMSMS). The analyte was then separated on a hydrophilic interaction chromatography column (PC‐HILIC; 5 μm, 4.6 mm I.D. × 50 mm; Osaka Soda, Osaka, Japan). LCMSMS detection was performed by electrospray ionization in negative ion mode.

[4] = test system: SK‐ES‐1; experiment: SK‐ES‐1 xenograft in SCID mice; format: in vivo, mouse; conditions: 10, 30, or 100 mg/kg orally once daily
Method: as §1

[5] = Plasma concentration‐time profile after single oral administration; format: in vivo, mouse; conditions: BALB/c mice
Method: First, we evaluated the plasma concentration‐time profile of K‐733 after single oral administration at dose ranges from 1 to 100 mg/kg in BALB/c mice (donors of SCID mice) for dose selection (Figure 8A). […] Therefore, we selected dose ranges from 10 to 100 mg/kg for in vivo studies.
Male BALB/cAnNCrlCrlj mice (6 weeks old) were purchased from Jackson Laboratories Japan (Yokohama, Japan). K-733, suspended in 0.5% (w/v) MC400 was orally administered at 1, 3, 10, and 100 mg/kg (n=2), and blood samples were collected from the tail vein at 0.5, 1, 2, 4, 7 and 24 h after administration. Mice were euthanized with carbon dioxide inhalation after the final blood sampling. Plasma was separated and stored frozen until use. The plasma concentration of K-733 was determined by liquid chromatography with tandem mass spectrometry (LC-MS). Plasma samples were pre-treated for protein precipitation, and the supernatant was subjected to liquid LC-MS. The analyte was separated on a C18 reverse-phase column (CAPCELL PAK C18 MG 3 μm, 3 mm I.D. × 35 mm; Osaka Soda). LC-MS detection was performed by electrospray ionization in a positive ion mode. The detected mass-to-charge ratio of K-733 was 482.95/92.75 (Q1/Q3). The lower limit of quantification (LLOQ) was 10 nM.

T1 sequence (Q02127 whole entry): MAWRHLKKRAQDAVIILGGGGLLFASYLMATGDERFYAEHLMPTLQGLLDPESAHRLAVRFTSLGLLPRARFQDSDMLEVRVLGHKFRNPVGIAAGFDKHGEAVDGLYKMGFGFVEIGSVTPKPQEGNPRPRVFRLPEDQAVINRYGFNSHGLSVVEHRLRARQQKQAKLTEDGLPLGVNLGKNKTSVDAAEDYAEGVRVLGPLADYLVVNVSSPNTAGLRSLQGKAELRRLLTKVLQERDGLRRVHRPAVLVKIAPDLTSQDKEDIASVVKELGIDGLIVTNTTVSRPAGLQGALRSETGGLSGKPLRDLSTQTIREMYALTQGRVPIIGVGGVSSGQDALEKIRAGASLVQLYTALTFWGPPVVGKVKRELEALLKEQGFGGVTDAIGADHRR

Cc1nc(-c2ccc(C3c4[nH]c5ccc(Cl)cc5c4CCN3C(=O)Oc3ccccc3)cc2)no1 (stereo not drawn) [K-733, phenyl 6‐chloro‐1‐(4‐(5‐methyl‐1,2,4‐oxadiazol‐3‐yl)phenyl)‐1,3,4,9‐tetrahydro‐2H‐pyrido[3,4‐b]indole‐2‐carboxylate]
Tumor growth, TC‐71 xenograft [1]: reduced dose‐dependently | Tumor growth, CADO‐ES1 xenograft [2]: reduced dose‐dependently | IC50 [3]: 0.953 nM | Tumor growth, SK‐ES‐1 xenograft [4]: reduced dose‐dependently | Plasma concentration, dose dependence ([5]; single oral 1 to 100 mg/kg): increased dose‐dependently | Plasma concentration relative to IC50 (DAX1 reporter and DHODH inhibition) ([5]; single oral ≥10 mg/kg): higher than the IC50 value
